Experimental data as given in patent EP1053749A1, “PREVENTIVES AND REMEDIES FOR NEURON DIGENERATION-ASSOCIATED DISEASEAS” (priority 1998, dated 1999).

Legend:
neuronal membrane = details: oxidative stress-induced alteration; unpublished data, contributed to Free Radic. Biol. Med.; cited from earlier work
cerebellar granule cells [1] = experiment: lipid peroxidation (TBA assay) after exposure to NO donors; type: cell-based, rat; details: 24-hr treatment with GSNO or SNP, Figure 4
cerebellar granule cells [2] = experiment: DNA fragmentation analysis after exposure to NO donors; type: cell-based, rat; details: pre-treatment of NO-treated cells
cerebellar granule cells [3] = experiment: lipid peroxidation (TBA assay) after exposure to peroxynitrite; type: cell-based, rat
cerebellar granule cells [4] = experiment: DNA fragmentation after exposure to peroxynitrite; type: cell-based, rat; details: peroxynitrite-treated cells
acute toxicity (LD50) = details: rat, in vivo
cerebellar granule cells [5] = experiment: cell membrane fluidity by ESR spin labeling after exposure to peroxynitrite; type: cell-based, rat; details: Figure 8
cerebellar granule cells [6] = experiment: peroxynitrite-induced apoptosis, morphological studies, Pharmacological Test 2; type: cell-based, rat; details: for protection from apoptotic death: 100 µM, 30-min exposure to 10 µM peroxynitrite
cerebellar granule cells [7] = experiment: cell viability by MTT assay after exposure to peroxynitrite; type: cell-based, rat; details: concentration not given, Figure 6
cerebellar granule cells [8] = experiment: cell viability by trypan blue exclusion after exposure to NO donors; type: cell-based, rat; details: exposure to NO donors (100 µmol/L SNP or GSNO), Figure 2
[9] = unpublished data, contributed to Free Radic. Biol. Med.; cited from earlier work
cerebellar granule cells [10] = experiment: MTT assay (mitochondrial activity) after exposure to GSNO; type: cell-based, rat; details: Figure 3
cerebellar granule cells [11] = experiment: peroxynitrite-induced cell death (trypan blue exclusion and MTT assay), Pharmacological Test 1; type: cell-based, rat; details: 30-min exposure to 5-10 µmol/L peroxynitrite, assessed after 24-hr culture, Figure 5
cerebellar granule cells [12] = experiment: cellular ATP content by HPLC after exposure to peroxynitrite; type: cell-based, rat; details: pretreatment; exposure to peroxynitrite for 30 min, Figure 9
cerebellar granule cells [13] = experiment: NO donor-induced apoptosis, morphological studies; type: cell-based, rat; details: 25 µmol/L; 24-hour exposure to GSNO or SNP (100-250 µmol/L)

## Cc1c(C)c2c(c(C)c1OP(=O)(O)OC1=C(O)[C@@H]([C@@H](O)CO)OC1=O)CCC(C)(CCCC(C)CCCC(C)CCCC(C)C)O2.O=P(O)(O)O (mixture of isomers) [EPC-K1, L-ascorbic acid 2-[3,4-dihydro-2,5,7,8-tetramethyl-2-(4,8,12-trimethyltridecyl)-2H-1-benzopyran-6-yl-hydrogen phosphate] phosphate salt]
Neuronal membrane
  neuronal membrane fluidity: protects neuronal membrane fluidity from oxidative stress-induced alteration
Cerebellar granule cells [1]
  lipid peroxidation (formation of TBARS): effectively inhibited lipid peroxidation
Cerebellar granule cells [2]
  DNA fragmentation (ladder pattern): prevented DNA from fragmentation
Cerebellar granule cells [3]; 50 µM, Figure 7
  formation of TBARS (lipid peroxidation): markedly suppressed
Cerebellar granule cells [4]; 50 µM
  DNA fragmentation (ladder pattern): effectively prevented DNA from fragmentation
Acute toxicity (LD50); iv
  LD50: > 100 mg/kg
Acute toxicity (LD50); po
  LD50: > 5000 mg/kg
Cerebellar granule cells [5]; 50 µM
  cell membrane fluidity (order parameter): prevented the change in cell membrane fluidity
Cerebellar granule cells [6]
  protection from apoptotic death: protected from death
Cerebellar granule cells [6]; overall comparison in Pharmacological Test 2
  protective action against ONOO^--induced apoptosis (comparison): more effective than vitamin C or Trolox
Cerebellar granule cells [7]
  cell viability (MTT assay): effectively protected the cells from death
Cerebellar granule cells [8]
  cell viability (trypan blue exclusion): effectively protected the cells from death
[9]
  scavenging of peroxynitrite: effective scavenger of peroxynitrite
Cerebellar granule cells [10]; 8-hr exposure to 100 µmol/L GSNO
  protection of ability of cells to reduce MTT (mitochondrial enzymes): exhibited no dear protective effects
Cerebellar granule cells [10]; after exposure to 100 µmol/L GSNO
  further dysfunction of mitochondrial enzymes (MTT): prevented mitochondrial enzymes from falling into further dysfunction
Cerebellar granule cells [11]
  peroxynitrite induced cell death: effectively prevented cell death
Solubility in water
  solubility in water: soluble in water
Cerebellar granule cells [12]
  cellular ATP content: suppressed the decrease of ATP
Cerebellar granule cells [13]
  protection from apoptotic cell death: protected the cells from death

## Cc1c(C)c2c(c(C)c1O)CCC(C)(C(=O)O)O2 (stereo not shown) [Trolox, 6-Hydroxy-2,5,7,8-tetramethylchroman-2-carboxylic acid]
Cerebellar granule cells [3]; 100 µM
  formation of TBARS (lipid peroxidation): markedly inhibited the formation of TBARS
Cerebellar granule cells [4]; 100 µM
  DNA fragmentation (ladder pattern): exhibited protective effects
Cerebellar granule cells [5]; 100 µM
  cell membrane fluidity (order parameter): did not show significant protective effect
Cerebellar granule cells [6]
  protection from apoptotic death: protected from death
Cerebellar granule cells [12]
  cellular ATP content: suppressed the decrease of ATP

## O=C1O[C@H]([C@@H](O)CO)C(O)=C1O [vitamin C]
Cerebellar granule cells [3]; 100 µM
  formation of TBARS (lipid peroxidation): markedly inhibited the formation of TBARS
Cerebellar granule cells [4]; 100 µM
  DNA fragmentation (ladder pattern): exhibited protective effects
Cerebellar granule cells [6]
  protection from apoptotic death: protected from death
Cerebellar granule cells [12]
  cellular ATP content: suppressed the decrease of ATP
